Our source for the melting point values is patent US20050004134A1, “Thiazole derivative and pharmaceutical use thereof” (priority 2001, published 2005).

The term melting point denotes the temperature, or range, at which the solid turns liquid.

As to `CC(C)n1nc(-c2sc(NC(=O)Cc3ccccc3)nc2-c2ccccc2)ccc1=O` [Example 4, N-[5-(1-Isopropyl-6-oxo-1,6-dihydro-3-pyridazinyl)-4-phenyl-1,3-thiazol-2-yl]-2-phenylacetamide], the melting point lay in the range of 250 to 252 °C.
For `CC(C)n1nc(-c2sc(NC(=O)C(C)(C)C)nc2-c2ccccc2)ccc1=O` [Example 5, N-[5-(1-Isopropyl-6-oxo-1,6-dihydro-3-pyridazinyl)-4-phenyl-1,3-thiazol-2-yl]-2,2-dimethylpropanamide], the melting point fell in the range of 224 to 226 °C.
On to `CC(=O)Nc1nc(-c2ccccc2)c(-c2ccc(=O)n(C(C)C)n2)s1` [Example 6, N-[5-(1-isopropyl-6-oxo-1,6-dihydro-3-pyridazinyl)-4-phenyl-1,3-thiazol-2-yl]-acetamide], for which the melting point was in the range of 202 to 204 °C.
The value for `CC(C)n1nc(-c2sc(NC(=O)C3CCCCC3)nc2-c2ccccc2)ccc1=O` [Example 7, N-[5-(1-Isopropyl-6-oxo-1,6-dihydro-3-pyridazinyl)-4-phenyl-1,3-thiazol-2-yl]cyclohexanecarboxamide] was 234 to 236 °C; that for `CC(C)n1nc(-c2sc(NC(=O)COc3ccccc3)nc2-c2ccccc2)ccc1=O` [Example 8, N-[5-(1-Isopropyl-6-oxo-1,6-dihydro-3-pyridazinyl)-4-phenyl-1,3-thiazol-2-yl]-2-phenoxyacetamide] was 243 to 244 °C; that for `CC(C)n1nc(-c2sc(NC(=O)NCc3ccccc3)nc2-c2ccccc2)ccc1=O` [Example 11, N-benzyl-N′-[5-(1-isopropyl-6-oxo-1,6-dihydro-3-pyridazinyl)-4-phenyl-1,3-thiazol-2-yl]urea] was 200 to 201 °C.
To `Cc1ccc(S(=O)(=O)NC(=O)Nc2nc(-c3ccccc3)c(-c3ccc(=O)n(C(C)C)n3)s2)cc1` [Example 12, N-({[5-(1-Isopropyl-6-oxo-1,6-dihydro-3-pyridazinyl)-4-phenyl-1,3-thiazol-2-yl]amino}carbonyl)-4-methylbenzene-sulfonamide] belongs 172 to 174 °C.
Turning to `CCCCCCNc1nc(-c2ccccc2)c(-c2ccc(=O)n(C(C)C)n2)s1` [Example 14, 6-[2-(hexylamino)-4-phenyl-1,3-thiazol-5-yl]-2-isopropyl-3(2H)-pyridazinone], the melting point is 90 to 92 °C.
To `CC(C)n1nc(-c2sc(Nc3cccnc3)nc2-c2ccccc2)ccc1=O` [Example 16, 2-Isopropyl-6-[4-phenyl-2-(3-pyridinylamino)-1,3-thiazol-5-yl]-3(2H)-pyridazinone] belongs 226 to 228 °C; to `CC(C)n1nc(-c2sc(NCc3ccccn3)nc2-c2ccccc2)ccc1=O` [Example 20, 2-Isopropyl-6-{4-phenyl-2-[(2-pyridinylmethyl)amino]-1,3-thiazol-5-yl}-3(2H)-pyridazinone], 182 to 184 °C; to `CC(=O)N(C)c1nc(-c2ccccc2)c(-c2ccc(=O)n(C(C)C)n2)s1` [Example 22, N-[5-(1-isopropyl-6-oxo-1,6-dihydro-3-pyridazinyl)-4-phenyl-1,3-thiazol-2-yl]-N-methylacetamide], 165 to 167 °C.
The value for `CC(C)n1nc(-c2sc(N(C)C)nc2-c2ccccc2)ccc1=O` [Example 23, 6-[2-(dimethylamino)-4-phenyl-1,3-thiazol-5-yl]-2-isopropyl-3(2H)-pyridazinone] was 158 to 160 °C; that for `CC(C)n1nc(-c2sc(NC(=O)c3ccccn3)nc2-c2ccccc2)ccc1=O` [Example 26, N-[5-(1-Isopropyl-6-oxo-1,6-dihydro-3-pyridazinyl)-4-phenyl-1,3-thiazol-2-yl]-2-pyridinecarboxamide] was 245 to 246 °C.
In turn, `CC(C)n1nc(-c2sc(NC(=O)c3ccc(CN4CCOCC4)cc3)nc2-c2ccccc2)ccc1=O` [Example 27, N-[5-(1-Isopropyl-6-oxo-1,6-dihydro-3-pyridazinyl)-4-phenyl-1,3-thiazol-2-yl]-4-(4-morpholinylmethyl)benzamide] gave a melting point of 222 to 224 °C.
